This assay deals with Tyrosine-protein kinase JAK2 (Homo sapiens, UniProt O60674). As to the kind of experiment: Inhibition Assay: Compounds of Formula I were screened for their ability to inhibit Jak2 using the general enzyme inhibition assay method, in which the assay mixture contained 500 μM ATP, 10 μM Omnia Y7 peptide (Catalog # IVGN KNZ3071C, Invitrogen Corporation, Carlsbad, Calif.) and 4 nM Jak2 in a total volume of 20 μL. […] (catalog # IVGN PV4210).

A value given as a limit tells only on which side of the number the result lay.

Chain of Tyrosine-protein kinase JAK2 (O60674 whole entry): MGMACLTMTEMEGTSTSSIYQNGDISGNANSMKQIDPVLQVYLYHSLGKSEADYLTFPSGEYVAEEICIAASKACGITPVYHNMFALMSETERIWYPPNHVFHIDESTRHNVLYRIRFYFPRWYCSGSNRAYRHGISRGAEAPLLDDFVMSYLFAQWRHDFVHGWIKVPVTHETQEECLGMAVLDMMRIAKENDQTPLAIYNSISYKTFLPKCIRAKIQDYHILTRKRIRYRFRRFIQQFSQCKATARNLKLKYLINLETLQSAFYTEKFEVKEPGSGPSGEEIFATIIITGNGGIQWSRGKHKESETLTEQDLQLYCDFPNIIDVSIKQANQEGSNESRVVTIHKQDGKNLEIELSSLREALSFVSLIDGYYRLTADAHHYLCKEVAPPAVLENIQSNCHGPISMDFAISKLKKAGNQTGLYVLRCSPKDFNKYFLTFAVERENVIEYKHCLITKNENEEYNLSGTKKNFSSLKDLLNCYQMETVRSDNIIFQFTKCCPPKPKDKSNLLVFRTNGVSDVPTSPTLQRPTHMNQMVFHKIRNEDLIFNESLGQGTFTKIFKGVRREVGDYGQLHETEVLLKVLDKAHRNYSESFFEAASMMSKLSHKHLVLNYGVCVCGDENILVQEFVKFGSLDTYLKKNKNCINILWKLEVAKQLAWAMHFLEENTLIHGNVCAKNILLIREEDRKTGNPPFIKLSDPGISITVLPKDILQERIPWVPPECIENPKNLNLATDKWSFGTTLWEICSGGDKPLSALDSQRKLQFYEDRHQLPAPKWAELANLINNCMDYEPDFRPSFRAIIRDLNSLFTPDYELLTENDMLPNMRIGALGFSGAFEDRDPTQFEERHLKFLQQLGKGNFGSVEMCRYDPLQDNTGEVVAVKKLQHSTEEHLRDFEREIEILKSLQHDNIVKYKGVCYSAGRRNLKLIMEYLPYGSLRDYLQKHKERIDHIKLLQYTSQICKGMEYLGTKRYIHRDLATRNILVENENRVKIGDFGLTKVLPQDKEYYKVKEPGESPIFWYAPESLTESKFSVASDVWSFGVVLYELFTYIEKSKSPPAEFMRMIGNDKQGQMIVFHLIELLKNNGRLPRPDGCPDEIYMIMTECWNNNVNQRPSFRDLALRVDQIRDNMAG

As for `COCCOc1ccc(F)cc1[C@H]1CCCN1c1ccn2ncc(C(=O)NC3CC3)c2n1`, the IC50 worked out at 472 nM.

In the case of `COc1ncc(F)cc1[C@H]1CCCN1c1ccn2ncc(C(=O)NCCCNC(=O)OC(C)(C)C)c2n1`, the IC50 was above 1000 nM.

As a reminder, the IC50 is the point on the concentration scale where inhibition reaches its midpoint.
